Here are results for 55 compounds from paper PMC12420824, “Discovery of a selective alpha-kinase 1 inhibitor for the rare genetic disease ROSAH syndrome” (Nature Communications, 2025).

pIC50: −log10 of the molar value.

ALPK1, sequence (Q96QP1 whole entry): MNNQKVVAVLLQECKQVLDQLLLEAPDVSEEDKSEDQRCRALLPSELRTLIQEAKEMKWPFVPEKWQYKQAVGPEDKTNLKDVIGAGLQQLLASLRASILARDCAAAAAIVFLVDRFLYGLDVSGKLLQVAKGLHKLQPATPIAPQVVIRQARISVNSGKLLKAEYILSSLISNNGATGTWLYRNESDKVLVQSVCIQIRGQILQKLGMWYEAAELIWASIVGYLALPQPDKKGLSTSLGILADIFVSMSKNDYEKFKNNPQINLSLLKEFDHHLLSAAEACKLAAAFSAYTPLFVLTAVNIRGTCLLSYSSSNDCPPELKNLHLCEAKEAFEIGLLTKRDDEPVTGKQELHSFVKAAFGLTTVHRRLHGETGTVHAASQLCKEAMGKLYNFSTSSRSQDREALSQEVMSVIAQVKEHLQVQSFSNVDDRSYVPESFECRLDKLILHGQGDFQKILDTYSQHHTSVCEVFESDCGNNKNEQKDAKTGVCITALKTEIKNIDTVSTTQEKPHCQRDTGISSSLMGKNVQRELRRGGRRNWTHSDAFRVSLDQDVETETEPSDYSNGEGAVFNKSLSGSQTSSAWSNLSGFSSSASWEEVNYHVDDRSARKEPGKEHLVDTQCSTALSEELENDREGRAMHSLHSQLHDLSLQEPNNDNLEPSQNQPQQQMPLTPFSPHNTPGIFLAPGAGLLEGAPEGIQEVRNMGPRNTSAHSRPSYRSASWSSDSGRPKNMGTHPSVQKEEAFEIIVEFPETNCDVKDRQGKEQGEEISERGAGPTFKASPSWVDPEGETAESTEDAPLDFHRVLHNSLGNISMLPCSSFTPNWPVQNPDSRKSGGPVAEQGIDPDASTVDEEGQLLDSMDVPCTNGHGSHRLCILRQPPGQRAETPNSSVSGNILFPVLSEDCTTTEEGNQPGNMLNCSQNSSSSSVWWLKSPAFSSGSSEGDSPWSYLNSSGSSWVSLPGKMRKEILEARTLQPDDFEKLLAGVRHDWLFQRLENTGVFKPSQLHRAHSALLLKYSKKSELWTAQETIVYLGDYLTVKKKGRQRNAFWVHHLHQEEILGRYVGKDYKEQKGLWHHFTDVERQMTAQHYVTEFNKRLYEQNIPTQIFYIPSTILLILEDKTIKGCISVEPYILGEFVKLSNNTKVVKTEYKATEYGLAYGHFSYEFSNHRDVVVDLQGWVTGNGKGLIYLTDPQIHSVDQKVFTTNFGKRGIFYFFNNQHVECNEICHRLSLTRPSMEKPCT

One assay addresses ALPK1 (Homo sapiens, UniProt Q96QP1). Kind of assay: TR-FRET (HTRF) kinase assay. As to conditions: 6.25 µM ATP, 20 nM ADP-D-heptose.
Description: The 10 µL kinase reactions were allowed to proceed for 1.5 h at 27 °C. Kinase reactions were terminated by adding 10 µL of the HTRF KinEASE detection kit buffer (Cisbio, Bedford, MA, USA; 62SDBRDF) containing monoclonal anti-HA-Eu cryptate (Cisbio; 610HAKLB) and monoclonal Anti HA-d2 to each well. TIFA phosphorylation levels were monitored through the detection of oligomerization signals generated upon TIFAsome assembly. Both donor and acceptor antibodies recognize TIFA and will generate a TR-FRET signal when bound to the same TIFA oligomer formed upon TIFA phosphorylation. […] The TR-FRET signals were calculated as the ratio of the acceptor and donor emission signals with the formula below:
ALPK1 kinase activity was calculated as follows: % Activity = 100% × (TR-FRET signal of test compound - mean TR-FRET signal of no ATP 1% DMSO control) / (mean TR-FRET signal of 1% DMSO control – mean TR-FRET signal of no ATP 1% DMSO control).
In multi-dose assays, compound activity was calculated via logarithmic interpolation. Concentration-response curves were fitted with a four-parameter logistic nonlinear regression model and the IC50 values for these compounds were calculated in GraphPad Prism 6.
Take `COc1ccccc1CNC(=O)Nc1nc(C(C)(C)c2cccc(Br)c2)cs1` [Compound 6]: the “HTRF Assay (IC50)” value is on record as “No activity”.

Regarding `COc1ccccc1CNC(=O)Nc1nc(C2(c3ccccc3)CC2)cs1` [Compound 7], the “HTRF Assay (IC50)” value is reported as “No activity”.

Take `COc1ccccc1CNC(=O)Nc1nc(C2(c3ccccc3)CCC2)cs1` [Compound 8]: the “HTRF Assay (IC50)” value is listed as “No activity”.

The same assay, now with this note: read-out: HTRF Assay (IC50); 6.25 µM ATP, 20 nM ADP-D-heptose.
As for `O=C(NCc1ccccc1)Nc1nc(C2(c3ccccc3)CCCC2)cs1` [Compound 1], the pIC50 is 5.30.

Take `CC(C)(c1ccccc1)c1csc(NC(=O)NCc2ccccc2)n1` [Compound 2]: the pIC50 is 5.60.

Consider `CC(C)(c1ccccc1)c1csc(NC(=O)NCc2ccccc2)n1` [Compound 3], for which the pIC50 is 5.68.

In the case of `COc1ccccc1CNC(=O)Nc1nc(C(C)(C)c2ccccc2)cs1` [Compound 4], the pIC50 was 5.66.

For `COc1ccccc1CNC(=O)Nc1nc(C(C)(C)c2ccc(Br)cc2)cs1` [Compound 5], the pIC50 is 5.96.

On to `COc1ccccc1CNC(=O)Nc1nc(C(C)c2ccccc2)cs1` (stereo not shown) [Compound 9], for which the pIC50 is 5.43.

Turning to `CC(C)(c1ccc(OC(F)(F)F)cc1)c1csc(NC(=O)NCc2ccc(N3CCNCC3)cc2)n1` [Compound 10], the pIC50 was 5.95.

Turning to `CC(C)(c1ccc(Cl)cc1)c1csc(NC(=O)NCc2ccc(N3CCNCC3)cc2)n1` [Compound 11], the pIC50 is 7.36.

Consider `CC(C)(c1ccc(C2CC2)cc1)c1csc(NC(=O)NCc2ccc(N3CCNCC3)cc2)n1` [Compound 12], for which the pIC50 was 6.81.

As to `CC(C)(c1ccc(C#N)cc1)c1csc(NC(=O)NCc2ccc(N3CCNCC3)cc2)n1` [Compound 13], the pIC50 is 6.63.

For the compound `CC(C)(c1ccc(F)cc1)c1csc(NC(=O)NCc2ccc(N3CCNCC3)cc2)n1` [Compound 14], the pIC50 was 6.04.

As to `CC(C)(c1ccc(I)cc1)c1csc(NC(=O)NCc2ccc(N3CCNCC3)cc2)n1` [Compound 15], the negative-log IC50 (pIC50) was 6.55.

In the case of `O=C(NCc1ccc(N2CCNCC2)cc1)Nc1nc(C(CO)c2ccc(Br)cc2)cs1` (stereo not shown) [Compound 16], the pIC50 was 5.25.

As for `CC(c1ccc(Br)cc1)c1csc(NC(=O)NCc2ccc(N3CCNCC3)cc2)n1` (stereo not shown) [Compound 17], the pIC50 is 6.41.

For `CC(C)(c1ccc(Br)cc1)c1csc(NC(=O)NCc2ccc(N3CCNCC3)cc2)n1` [Compound 18], the pIC50 is 6.89.

With `CCC(C)(c1ccc(Br)cc1)c1csc(NC(=O)NCc2ccc(N3CCNCC3)cc2)n1` (stereo not shown) [Compound 19], the pIC50 is 6.37.

Regarding `COc1ccc(C(C)(C)c2csc(NC(=O)NCc3ccc(N4CCNCC4)cc3)n2)cc1` [Compound 20], the pIC50 was 6.91.

In the case of `COc1ccc(C(C)(C)c2csc(NC(=O)NCc3ccc(N4CCNCC4)c(F)c3)n2)cc1` [Compound 21], the pIC50 was 7.08.

As for `CC(C)(c1ccc(O)cc1)c1csc(NC(=O)NCc2ccc(N3CCNCC3)cc2)n1` [Compound 22], the pIC50 was 6.14.

`CC(C)(c1ccc(Br)cc1)c1csc(NC(=O)NCc2ccc(N3CCNCC3)c(F)c2)n1` [Compound 23]: the pIC50 is 6.86.

In the case of `CC(C)(c1ccc(Br)cc1)c1csc(NC(=O)NCc2ccc(N3CCNCC3)c(Cl)c2)n1` [Compound 24], the pIC50 was 6.63.

Regarding `Cc1cc(CNC(=O)Nc2nc(C(C)(C)c3ccc(Br)cc3)cs2)ccc1N1CCNCC1` [Compound 25], the negative logarithm of the IC50 (pIC50) was 6.34.

`COc1cc(CNC(=O)Nc2nc(C(C)(C)c3ccc(Br)cc3)cs2)ccc1N1CCNCC1` [Compound 26]: the pIC50 was 6.79.

As for `COCCNC(=O)Nc1nc(C(C)(C)c2ccc(Br)cc2)cs1` [Compound 28], the pIC50 is 5.95.

Take `C#CC(C)(c1ccc(Br)cc1)c1csc(NC(=O)NCCO)n1` (stereo not shown) [Compound 29]: the pIC50 is 7.15.

As for `C#CC(C)(c1ccc(Br)cc1)c1csc(NC(N)=O)n1` (stereo not shown) [Compound 30], the pIC50 was 6.89.

On to `C#CC(C)(c1ccc(OC)cc1)c1csc(NC(N)=O)n1` (stereo not shown) [Compound 31], for which the pIC50 was 7.03.

As to `C#CC(CC)(c1ccc(Br)cc1)c1csc(NC(=O)NCCO)n1` (stereo not shown) [Compound 32], the pIC50 was 6.05.

In the case of `COCC(C)(c1ccc(Cl)cc1)c1csc(NC(=O)NCCO)n1` (stereo not shown) [Compound 33], the pIC50 was 6.25.

As to `C#CC(C)(c1ccc(Cl)cc1)c1csc(NC(N)=O)n1` (stereo not shown) [Compound 34], the pIC50 is 7.32.

On to `COc1cccc2sc(NC(=O)c3c(F)cccc3F)nc12` [Compound 35], for which the pIC50 is 5.89.

Regarding `COc1cccc2sc(NC(=O)c3c(F)cc(N4CCN(Cc5ccccc5)C(=O)C4)cc3F)nc12` [Compound 36], the pIC50 was 6.49.

As for `COc1cccc2sc(NC(=O)c3c(F)cc(NCCN(C)C)cc3F)nc12` [Compound 37], the pIC50 is 6.29.

As to `COc1cccc2sc(NC(=O)c3c(F)cc(N4CCC(N)C4)cc3F)nc12` (stereo not shown) [Compound 38], the pIC50 was 6.90.

For `COc1cccc2sc(NC(=O)c3c(F)cc(N4CCC(O)C4)cc3F)nc12` (stereo not shown) [Compound 39], the pIC50 was 5.50.

In the case of `COc1cccc2sc(NC(=O)c3c(F)cc(OCCO)cc3F)nc12` [Compound 40], the pIC50 was 6.25.

Take `COc1cccc2sc(NC(=O)c3c(F)cc(N4CCC(CO)CC4)cc3F)nc12` [Compound 41]: the pIC50 is 5.64.

Regarding `COc1cccc2sc(NC(=O)c3c(F)cc(N4CCN(CCO)CC4)cc3F)nc12` [Compound 42], the pIC50 is 5.28.

For `COc1cccc2sc(NC(=O)c3c(F)cc(N4CCNCC4)cc3F)nc12` [Compound 43], the negative-log IC50 (pIC50) is 6.68.

For the compound `COc1cccc2sc(NC(=O)c3c(F)cc(N4CCNC(C)C4)cc3F)nc12` (stereo not shown) [Compound 44], the negative logarithm of the IC50 (pIC50) is 6.46.

Turning to `C#CC(C)(c1ccc(Cl)cc1)c1csc(NC(=O)c2ccc(N3CCNCC3)cc2)n1` (stereo not shown) [Compound 45], the pIC50 is 7.42.

On to `C#CC(C)(c1ccc(Cl)cc1)c1csc(NC(=O)c2ccc(N3CCNCC3)nc2)n1` (stereo not shown) [Compound 46], for which the pIC50 was 6.78.

`C#CC(C)(c1ccc(Cl)cc1)c1csc(NC(=O)c2c(F)ccc(OC)c2F)n1` (stereo not shown) [Compound 47]: the negative-log IC50 (pIC50) was 5.81.

For the compound `C#CC(C)(c1ccc(Cl)cc1)c1csc(NC(=O)c2ccc(N3CCNCC3)cc2F)n1` (stereo not shown) [Compound 48], the pIC50 was 6.82.

Turning to `C#CC(C)(c1ccc(Cl)cc1)c1csc(NC(=O)c2c(F)cc(N3CCN(C)CC3)cc2F)n1` (stereo not shown) [Compound 51], the pIC50 was 6.37.

For `C#CC(C)(c1ccc(Cl)cc1)c1csc(NC(=O)c2c(F)cc(NCCO)cc2F)n1` (stereo not shown) [Compound 52], the pIC50 was 6.39.

`C#CC(C)(c1ccc(Cl)cc1)c1csc(NC(=O)c2c(Cl)cc(N3CCNCC3)cc2Cl)n1` (stereo not shown) [Compound 53]: the pIC50 was 6.51.

Turning to `C#CC(C)(c1ccc(Cl)cc1)c1csc(NC(=O)c2c(F)cc(N3CCC(N)C3)cc2F)n1` (stereo not shown) [Compound 54], the pIC50 was 7.51.

For `C#CC(C)(c1ccc(Cl)cc1)c1csc(NC(=O)c2c(F)cc(N3CCNC(CO)C3)cc2F)n1` (stereo not shown) [Compound 55], the pIC50 is 6.50.

As for `C#CC(C)(c1ccc(Cl)cc1)c1csc(NC(=O)c2c(F)cc(N3CCNCC3CO)cc2F)n1` (stereo not shown) [Compound 56], the negative logarithm of the IC50 (pIC50) is 7.70.

Regarding `C#CC(C)(c1ccc(Cl)cc1)c1csc(NC(=O)c2c(F)cc(N3CCNCC3CC)cc2F)n1` (stereo not shown) [Compound 58], the pIC50 is 7.15.

For `CC(c1ccc(Cl)cc1)c1csc(NC(=O)c2c(F)cc(N3CCNCC3)cc2F)n1` (stereo not shown) [Compound 59], the pIC50 is 6.57.

For orientation: pIC50 means the negative decadic logarithm of the IC50, by convention in mol/L.
